In patent US11629201B2, “PSMA-binding agents and uses thereof” (ITM Isotope Technologies Munich SE, priority 2017, dated 2023):
Where “and” joins values, the source holds several entries; their conditions need not be identical. Equal values may be shown once.

What was measured:
[1] = tested on: PSMA-positive PC-3 PIP cells; assay: Cell uptake and internalization in PSMA-positive PC-3 PIP cells; format: cell-based
human plasma proteins = assay: Ultrafiltration assay, binding to human plasma proteins; settings: human plasma, ultrafiltration
Method: Therefore, the compounds were labeled with ^177Lu at a specific activity of 50 MBq/nmol and incubated in human plasma samples or PBS at room temperature. The free and plasma-bound fractions were separated using a centrifree ultrafiltration device (4104 centrifugal filter units [Millipore]; 30000 Da nominal molecular weight limit, methylcellulose micropartition membranes). The incubated solution was loaded to the ultrafiltration device and centrifuged at 2500 rpm for 40 min at 20° C. Samples from the filtrate were taken an analyzed for radioactivity in a gamma-counter. The amount of plasma-bound compound was calculated as the fraction of radioactivity measured in the filtrate relative to the corresponding loading solution (set to 100%).
Determination of Albumin-binding Properties. The binding of the radioligands to human plasma proteins was determined by an ultrafiltration assay. […] Three independent experiments were performed in duplicates with both radioligands and the data was fitted to a semi-logarithmic plot (non-linear regression, one-site, specific binding) to obtain the half maximum binding (B50) in GraphPad Prism software (version 7).
The ^177Lu-labeled PSMA ligands (50 MBq/nmol) were diluted in mouse plasma (Rockland, USA) and human plasma (Stiftung Blutspende SRK Aargau-Solothurn, Switzerland), respectively, and incubated for 15 min at room temperature. In addition, the radioligands were diluted in PBS (buffer solution without proteins) as a control experiment. Aliquots of the solutions were loaded onto an ultrafiltration device and centrifuged. The filtered activity was measured with a γ-counter and used for calculating the plasma protein-bound activity (retained on the filter membrane) as the percentage of total added activity. […] Statistical analysis (one-way ANOVA with Bonferroni's multiple comparison post-test) was performed using GraphPad Prism software, version 7. A p-value of <0.05 was considered statistically significant.

[2] = tested on: PC-3 PIP/flu tumor-bearing mice; assay: Biodistribution studies in PC-3 PIP/flu tumor-bearing mice; settings: for Tumor-to-blood / Tumor-to-kidney / Tumor-to-liver: PC-3 PIP tumor
mouse plasma proteins = assay: Ultrafiltration assay, binding to mouse plasma proteins; format: in vitro ADME
Method: Filter Assay. […] In addition, the radioligands were diluted in PBS (buffer solution without proteins) as a control experiment. Aliquots of the solutions were loaded onto an ultrafiltration device and centrifuged. The filtered activity was measured with a γ-counter and used for calculating the plasma protein-bound activity (retained on the filter membrane) as the percentage of total added activity. […] Statistical analysis (one-way ANOVA with Bonferroni's multiple comparison post-test) was performed using GraphPad Prism software, version 7. A p-value of <0.05 was considered statistically significant.

[3] = non-decay-corrected biodistribution data up to 192 h p.i.

O=C(O)CCC(NC(=O)NC(CCCCNC(=O)C(Cc1ccc2ccccc2c1)NC(=O)C1CCC(CNC(=O)C(CCCCNC(=O)CN2CCN(CC(=O)O)CCN(CC(=O)O)CCN(CC(=O)O)CC2)NC(=O)CC(NC(=O)CC(NC(=O)CCCc2ccc(I)cc2)C(=O)O)C(=O)O)CC1)C(=O)O)C(=O)O (stereo not shown) [^177Lu-PSMA-ALB-05, metal not drawn]
cell uptake ([1]; 2 h): 52-57%
internalized fraction ([1]; 2 h): 18-24%
cell uptake ([1]; 4 h): 60-63%
internalized fraction ([1]; 4 h): 20-26%
plasma protein-bound fraction (human plasma proteins): 95±0.6%
Tumor-to-blood ([2]; 1 h p.i.): 2.31 ± 0.58
Tumor-to-kidney ([2]; 1 h p.i.): 0.79 ± 0.02
Tumor-to-liver ([2]; 1 h p.i.): 8.65 ± 2.21
Blood ([2]; 4 h p.i.): 10.2 ± 1.98 % IA/g
Bone ([2]; 4 h p.i.): 1.67 ± 0.27 % IA/g
Heart ([2]; 4 h p.i.): 3.82 ± 0.63 % IA/g
Intestines ([2]; 4 h p.i.): 1.33 ± 0.25 % IA/g
Kidneys ([2]; 4 h p.i.): 52.8 ± 7.17 % IA/g
Liver ([2]; 4 h p.i.): 2.96 ± 0.50 % IA/g
Lung ([2]; 4 h p.i.): 7.07 ± 1.44 % IA/g
Muscle ([2]; 4 h p.i.): 1.30 ± 0.23 % IA/g
PC-3 PIP Tumor ([2]; 4 h p.i.): 75.3 ± 15.3 % IA/g
PC-3 flu Tumor ([2]; 4 h p.i.): 2.10 ± 0.20 % IA/g
Salivary glands ([2]; 4 h p.i.): 2.75 ± 0.72 % IA/g
Spleen ([2]; 4 h p.i.): 3.29 ± 0.74 % IA/g
Stomach ([2]; 4 h p.i.): 1.15 ± 0.17 % IA/g
Tumor-to-blood ([2]; 4 h p.i.): 7.43 ± 1.43
Tumor-to-kidney ([2]; 4 h p.i.): 1.42 ± 0.19
Tumor-to-liver ([2]; 4 h p.i.): 25.6 ± 4.58
Blood ([2]; 24 h p.i.): 1.67 ± 0.29 % IA/g
Bone ([2]; 24 h p.i.): 0.31 ± 0.08 % IA/g
Heart ([2]; 24 h p.i.): 0.65 ± 0.11 % IA/g
Intestines ([2]; 24 h p.i.): 0.28 ± 0.05 % IA/g
Kidneys ([2]; 24 h p.i.): 23.9 ± 4.02 % IA/g
Liver ([2]; 24 h p.i.): 0.82 ± 0.35 % IA/g
Lung ([2]; 24 h p.i.): 1.80 ± 0.78 % IA/g
Muscle ([2]; 24 h p.i.): 0.19 ± 0.06 % IA/g
PC-3 PIP Tumor ([2]; 24 h p.i.): 79.4 ± 11.1 % IA/g
PC-3 flu Tumor ([2]; 24 h p.i.): 0.59 ± 0.10 % IA/g
Salivary glands ([2]; 24 h p.i.): 0.49 ± 0.10 % IA/g
Spleen ([2]; 24 h p.i.): 1.13 ± 0.23 % IA/g
Stomach ([2]; 24 h p.i.): 0.28 ± 0.06 % IA/g
Tumor-to-blood ([2]; 24 h p.i.): 48.2 ± 7.04 and 48 ± 6.4
Tumor-to-kidney ([2]; 24 h p.i.): 3.38 ± 0.58 and 3.4 ± 0.5
Tumor-to-liver ([2]; 24 h p.i.): 106 ± 28.6 and 106 ± 26
Blood ([2]; 48 h p.i.): 1.66 ± 0.37 % IA/g
Bone ([2]; 48 h p.i.): 0.28 ± 0.05 % IA/g
Heart ([2]; 48 h p.i.): 0.54 ± 0.15 % IA/g
Intestines ([2]; 48 h p.i.): 0.28 ± 0.10 % IA/g
Kidneys ([2]; 48 h p.i.): 12.8 ± 2.62 % IA/g
Liver ([2]; 48 h p.i.): 0.56 ± 0.16 % IA/g
Lung ([2]; 48 h p.i.): 1.48 ± 0.62 % IA/g
Muscle ([2]; 48 h p.i.): 0.20 ± 0.08 % IA/g
PC-3 PIP Tumor ([2]; 48 h p.i.): 60.3 ± 10.7 % IA/g
PC-3 flu Tumor ([2]; 48 h p.i.): 0.57 ± 0.09 % IA/g
Salivary glands ([2]; 48 h p.i.): 0.45 ± 0.10 % IA/g
Spleen ([2]; 48 h p.i.): 0.71 ± 0.23 % IA/g
Stomach ([2]; 48 h p.i.): 0.29 ± 0.08 % IA/g
Tumor-to-blood ([2]; 48 h p.i.): 36.7 ± 1.81 and 38 ± 2.5
Tumor-to-kidney ([2]; 48 h p.i.): 4.72 ± 0.18 and 5.0 ± 0.7
Tumor-to-liver ([2]; 48 h p.i.): 110 ± 12.2 and 100 ± 32
Blood ([2]; 96 h p.i.): 1.79 ± 0.57 % IA/g
Bone ([2]; 96 h p.i.): 0.28 ± 0.04 % IA/g
Heart ([2]; 96 h p.i.): 0.70 ± 0.21 % IA/g
Intestines ([2]; 96 h p.i.): 0.30 ± 0.11 % IA/g
Kidneys ([2]; 96 h p.i.): 6.89 ± 0.31 % IA/g
Liver ([2]; 96 h p.i.): 0.74 ± 0.14 % IA/g
Lung ([2]; 96 h p.i.): 1.36 ± 0.29 % IA/g
Muscle ([2]; 96 h p.i.): 0.15 ± 0.06 % IA/g
PC-3 PIP Tumor ([2]; 96 h p.i.): 45.0 ± 7.94 % IA/g
PC-3 flu Tumor ([2]; 96 h p.i.): 0.49 ± 0.11 % IA/g
Salivary glands ([2]; 96 h p.i.): 0.46 ± 0.10 % IA/g
Spleen ([2]; 96 h p.i.): 0.64 ± 0.29 % IA/g
Stomach ([2]; 96 h p.i.): 0.24 ± 0.07 % IA/g
Tumor-to-blood ([2]; 96 h p.i.): 27.1 ± 10.0
Tumor-to-kidney ([2]; 96 h p.i.): 6.51 ± 0.98
Tumor-to-liver ([2]; 96 h p.i.): 62.8 ± 18.8
Blood ([2]; 144 h p.i.): 1.75 ± 0.35 % IA/g
Bone ([2]; 144 h p.i.): 0.25 ± 0.05 % IA/g
Heart ([2]; 144 h p.i.): 0.65 ± 0.17 % IA/g
Intestines ([2]; 144 h p.i.): 0.27 ± 0.05 % IA/g
Kidneys ([2]; 144 h p.i.): 4.28 ± 0.26 % IA/g
Liver ([2]; 144 h p.i.): 0.72 ± 0.13 % IA/g
Lung ([2]; 144 h p.i.): 1.25 ± 0.18 % IA/g
Muscle ([2]; 144 h p.i.): 0.17 ± 0.04 % IA/g
PC-3 PIP Tumor ([2]; 144 h p.i.): 33.9 ± 0.80 % IA/g
PC-3 flu Tumor ([2]; 144 h p.i.): 0.52 ± 0.13 % IA/g
Salivary glands ([2]; 144 h p.i.): 0.46 ± 0.09 % IA/g
Spleen ([2]; 144 h p.i.): 0.56 ± 0.08 % IA/g
Stomach ([2]; 144 h p.i.): 0.23 ± 0.04 % IA/g
Tumor-to-blood ([2]; 144 h p.i.): 19.9 ± 3.88
Tumor-to-kidney ([2]; 144 h p.i.): 7.93 ± 0.30
Tumor-to-liver ([2]; 144 h p.i.): 47.9 ± 8.28
Blood ([2]; 192 h p.i.): 1.48 ± 0.13 % IA/g
Bone ([2]; 192 h p.i.): 0.26 ± 0.04 % IA/g
Heart ([2]; 192 h p.i.): 0.59 ± 0.05 % IA/g
Intestines ([2]; 192 h p.i.): 0.24 ± 0.04 % IA/g
Kidneys ([2]; 192 h p.i.): 2.70 ± 0.36 % IA/g
Liver ([2]; 192 h p.i.): 0.84 ± 0.06 % IA/g
Lung ([2]; 192 h p.i.): 1.22 ± 0.26 % IA/g
Muscle ([2]; 192 h p.i.): 0.14 ± 0.01 % IA/g
PC-3 PIP Tumor ([2]; 192 h p.i.): 27.9 ± 3.24 % IA/g
PC-3 flu Tumor ([2]; 192 h p.i.): 0.45 ± 0.06 % IA/g
Salivary glands ([2]; 192 h p.i.): 0.37 ± 0.04 % IA/g
Spleen ([2]; 192 h p.i.): 0.55 ± 0.10 % IA/g
Stomach ([2]; 192 h p.i.): 0.16 ± 0.04 % IA/g
Tumor-to-blood ([2]; 192 h p.i.): 19.0 ± 2.97
Tumor-to-kidney ([2]; 192 h p.i.): 10.4 ± 0.25
Tumor-to-liver ([2]; 192 h p.i.): 33.4 ± 1.64
AUC PC-3 PIP tumor [2, 3]: 6741 ± 421 % IA/g · h
AUC blood [2, 3]: 387 ± 32 % IA/g · h
AUC kidneys [2, 3]: 1837 ± 112 % IA/g · h
AUC liver [2, 3]: 131 ± 11 % IA/g · h
Ratio of AUCs AUCTu-to-AUCBl ([2]; tumor to blood): 17
Ratio of AUCs AUC-Tu-to-AUC-Ki ([2]; tumor to kidneys): 3.7
Ratio of AUCs AUCTu-to-AUCLi ([2]; tumor to liver): 52
plasma protein-bound fraction (mouse plasma proteins): 77±2.1%
